Experimental data reported in ChEMBL document CHEMBL4800731, “Data for DCP probe JNJ-65355394” (2021).
One block for each molecule: values may come before it.

What was measured:
[1] = molecular target: Type-1 angiotensin II receptor (Homo sapiens) (UniProt P30556); test: hAT1 Cerep panel
[2] = molecular target: D(2) dopamine receptor (Homo sapiens) (UniProt P14416); test: hD2S Cerep panel
[3] = molecular target: Voltage-gated inwardly rectifying potassium channel KCNH2 (Homo sapiens, UniProt Q12809); test: hERG Cerep panel
[4] = molecular target: Melanocortin receptor 4 (Homo sapiens) (UniProt P32245); test: hMC4 Cerep panel
[5] = molecular target: Vasoactive intestinal polypeptide receptor 1 (Homo sapiens) (UniProt P32241); test: hVPAC1 Cerep panel
[6] = molecular target: 5-hydroxytryptamine receptor 1B (Rattus norvegicus) (UniProt P28564); test: r5HT1B Cerep panel
[7] = species on record: Rattus norvegicus; test: rCaCH (nitrendipine) Cerep panel
[8] = species on record: Rattus norvegicus; test: rNaCH Cerep panel
[9] = molecular target: Kappa-type opioid receptor (Rattus norvegicus) (UniProt P34975); test: rOP2 Cerep panel
[10] = molecular target: Adenosine receptor A3 (Homo sapiens) (UniProt P0DMS8); test: hA3 Cerep panel
[11] = molecular target: Alpha-2A adrenergic receptor (Rattus norvegicus) (UniProt P22909); test: rAa2 Cerep panel
[12] = species on record: Rattus norvegicus; test: rBZD Cerep panel
[13] = molecular target: B2 bradykinin receptor (Homo sapiens) (UniProt P30411); test: hBK2 Cerep panel
[14] = species on record: Rattus norvegicus; test: rGABA Cerep panel
[15] = molecular target: T1, Muscarinic acetylcholine receptor M1 (Homo sapiens) (UniProt P11229); test: hM1 Cerep panel
T1 sequence (whole entry): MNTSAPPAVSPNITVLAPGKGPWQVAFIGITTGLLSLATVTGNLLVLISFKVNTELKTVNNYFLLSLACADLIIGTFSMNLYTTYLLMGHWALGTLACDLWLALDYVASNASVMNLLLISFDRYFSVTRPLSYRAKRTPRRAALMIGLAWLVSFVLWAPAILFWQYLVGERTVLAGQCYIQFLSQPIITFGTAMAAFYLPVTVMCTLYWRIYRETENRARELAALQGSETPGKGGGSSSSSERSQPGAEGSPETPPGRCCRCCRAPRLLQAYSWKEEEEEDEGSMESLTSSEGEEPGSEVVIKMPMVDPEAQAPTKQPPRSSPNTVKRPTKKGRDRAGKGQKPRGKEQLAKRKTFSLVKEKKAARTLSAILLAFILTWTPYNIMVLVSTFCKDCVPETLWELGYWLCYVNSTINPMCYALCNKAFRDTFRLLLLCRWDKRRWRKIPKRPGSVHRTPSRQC

[16] = molecular target: T2, Muscarinic acetylcholine receptor M2 (Homo sapiens) (UniProt P08172); test: hM2 Cerep panel
T2 sequence (whole entry): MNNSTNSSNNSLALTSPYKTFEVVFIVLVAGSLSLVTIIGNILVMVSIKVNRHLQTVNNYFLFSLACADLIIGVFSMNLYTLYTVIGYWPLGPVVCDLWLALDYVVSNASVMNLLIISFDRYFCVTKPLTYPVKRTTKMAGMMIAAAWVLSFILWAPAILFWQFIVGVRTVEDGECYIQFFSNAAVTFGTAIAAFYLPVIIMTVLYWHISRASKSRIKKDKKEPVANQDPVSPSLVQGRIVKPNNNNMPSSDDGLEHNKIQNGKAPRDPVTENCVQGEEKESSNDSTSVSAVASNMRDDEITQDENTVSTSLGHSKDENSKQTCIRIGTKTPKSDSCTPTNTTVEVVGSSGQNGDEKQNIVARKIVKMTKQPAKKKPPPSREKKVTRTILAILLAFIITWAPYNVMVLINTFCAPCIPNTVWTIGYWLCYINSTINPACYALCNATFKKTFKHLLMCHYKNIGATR

[17] = molecular target: Muscarinic acetylcholine receptor M3 (Homo sapiens) (UniProt P20309); test: hM3 Cerep panel
[18] = molecular target: Neurotensin receptor type 1 (Homo sapiens) (UniProt P30989); test: hNT1 Cerep panel
[19] = molecular target: 5-hydroxytryptamine receptor 6 (Homo sapiens) (UniProt P50406); test: h5HT6 Cerep panel
[20] = molecular target: 5-hydroxytryptamine receptor 7 (Homo sapiens) (UniProt P34969); test: h5HT7 Cerep panel
[21] = species on record: Rattus norvegicus; test: rSKCaCH Cerep panel
[22] = species on record: Rattus norvegicus; test: rCLCH Cerep panel
[23] = molecular target: Sodium-dependent noradrenaline transporter (Homo sapiens) (UniProt P23975); test: hNET Cerep panel
[24] = molecular target: T3, 5-hydroxytryptamine receptor 3A (Homo sapiens) (UniProt P46098); test: h5HT3 Cerep panel
T3 sequence (whole entry): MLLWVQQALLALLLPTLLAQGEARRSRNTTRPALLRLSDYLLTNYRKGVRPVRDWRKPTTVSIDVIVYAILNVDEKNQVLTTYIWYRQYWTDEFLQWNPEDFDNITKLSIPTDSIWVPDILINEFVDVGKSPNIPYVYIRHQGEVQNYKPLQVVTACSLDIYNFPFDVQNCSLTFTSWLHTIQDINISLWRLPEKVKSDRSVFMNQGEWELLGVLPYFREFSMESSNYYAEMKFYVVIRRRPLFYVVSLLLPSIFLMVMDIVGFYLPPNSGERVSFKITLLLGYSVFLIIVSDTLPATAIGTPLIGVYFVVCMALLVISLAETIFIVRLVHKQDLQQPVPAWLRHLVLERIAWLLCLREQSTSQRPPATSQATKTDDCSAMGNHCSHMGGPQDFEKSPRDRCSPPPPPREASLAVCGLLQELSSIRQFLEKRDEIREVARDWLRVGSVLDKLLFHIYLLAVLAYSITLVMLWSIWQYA

[25] = molecular target: 5-hydroxytryptamine receptor 2B (Homo sapiens) (UniProt P41595); test: h5HT2B Cerep panel
[26] = molecular target: D(1B) dopamine receptor (Homo sapiens) (UniProt P21918); details: Compound concentration 10.0 uM
[27] = molecular target: Histamine H2 receptor (Homo sapiens) (UniProt P25021); details: Compound concentration 10.0 uM
[28] = molecular target: Sodium-dependent serotonin transporter (Homo sapiens, UniProt P31645); test: GPCRScan assay: inhibition of SERT; parameters: radioligand conc. used [nm] 1.5 – 2.0, parental cells stable HEK
[29] = molecular target: Sigma non-opioid intracellular receptor 1 (Homo sapiens, UniProt Q99720); test: GPCRScan assay: inhibition of Sigma 1; parameters: radioligand conc. used [nm] 4.0 – 5.0, parental cells HEKT
[30] = molecular target: D(1A) dopamine receptor (Homo sapiens) (UniProt P21728); details: Compound concentration 10.0 uM
[31] = molecular target: Histamine H4 receptor (Homo sapiens) (UniProt Q9H3N8); details: Compound concentration 10.0 uM

Sequence of Sodium-dependent serotonin transporter (P31645 whole entry): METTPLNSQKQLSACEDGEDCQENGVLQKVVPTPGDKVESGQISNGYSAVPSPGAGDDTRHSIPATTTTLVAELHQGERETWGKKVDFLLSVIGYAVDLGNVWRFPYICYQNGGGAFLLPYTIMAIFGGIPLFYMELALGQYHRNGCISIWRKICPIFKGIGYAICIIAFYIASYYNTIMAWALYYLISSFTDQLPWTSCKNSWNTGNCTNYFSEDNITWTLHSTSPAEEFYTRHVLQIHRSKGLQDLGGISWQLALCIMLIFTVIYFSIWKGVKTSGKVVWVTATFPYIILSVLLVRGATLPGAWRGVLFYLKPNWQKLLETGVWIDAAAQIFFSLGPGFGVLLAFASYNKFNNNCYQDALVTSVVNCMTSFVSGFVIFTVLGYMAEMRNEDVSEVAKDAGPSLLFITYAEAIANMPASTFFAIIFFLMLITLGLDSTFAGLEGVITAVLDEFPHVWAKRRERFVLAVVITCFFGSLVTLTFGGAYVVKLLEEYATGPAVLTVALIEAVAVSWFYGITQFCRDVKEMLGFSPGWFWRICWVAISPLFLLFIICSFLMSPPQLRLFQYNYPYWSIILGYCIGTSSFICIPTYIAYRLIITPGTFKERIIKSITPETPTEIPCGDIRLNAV
Sequence of 5-hydroxytryptamine receptor 7 (Homo sapiens) (P34969 whole entry): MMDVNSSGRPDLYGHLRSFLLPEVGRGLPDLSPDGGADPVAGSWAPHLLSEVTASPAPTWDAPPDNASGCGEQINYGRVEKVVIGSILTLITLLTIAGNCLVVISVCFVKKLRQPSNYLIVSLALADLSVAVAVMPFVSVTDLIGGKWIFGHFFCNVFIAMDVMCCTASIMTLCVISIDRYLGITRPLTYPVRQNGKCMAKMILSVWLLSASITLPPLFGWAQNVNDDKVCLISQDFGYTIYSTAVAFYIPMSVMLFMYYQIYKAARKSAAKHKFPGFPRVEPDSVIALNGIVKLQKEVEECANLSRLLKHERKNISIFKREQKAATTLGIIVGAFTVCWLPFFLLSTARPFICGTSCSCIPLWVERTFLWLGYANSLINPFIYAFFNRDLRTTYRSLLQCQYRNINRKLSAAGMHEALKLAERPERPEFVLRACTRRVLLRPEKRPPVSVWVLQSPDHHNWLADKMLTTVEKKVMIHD
Sequence of Kappa-type opioid receptor (Rattus norvegicus) (P34975 whole entry): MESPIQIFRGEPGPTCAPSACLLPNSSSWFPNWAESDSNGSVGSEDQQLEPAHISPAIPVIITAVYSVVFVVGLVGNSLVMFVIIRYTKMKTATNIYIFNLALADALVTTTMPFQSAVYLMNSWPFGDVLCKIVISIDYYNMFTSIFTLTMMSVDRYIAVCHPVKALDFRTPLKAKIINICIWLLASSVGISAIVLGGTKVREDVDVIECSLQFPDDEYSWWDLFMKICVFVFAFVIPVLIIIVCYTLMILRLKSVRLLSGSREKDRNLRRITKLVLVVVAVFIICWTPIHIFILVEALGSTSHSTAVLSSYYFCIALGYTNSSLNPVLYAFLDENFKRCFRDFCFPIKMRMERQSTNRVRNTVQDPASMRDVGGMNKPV
Sequence of D(1B) dopamine receptor (Homo sapiens) (P21918 whole entry): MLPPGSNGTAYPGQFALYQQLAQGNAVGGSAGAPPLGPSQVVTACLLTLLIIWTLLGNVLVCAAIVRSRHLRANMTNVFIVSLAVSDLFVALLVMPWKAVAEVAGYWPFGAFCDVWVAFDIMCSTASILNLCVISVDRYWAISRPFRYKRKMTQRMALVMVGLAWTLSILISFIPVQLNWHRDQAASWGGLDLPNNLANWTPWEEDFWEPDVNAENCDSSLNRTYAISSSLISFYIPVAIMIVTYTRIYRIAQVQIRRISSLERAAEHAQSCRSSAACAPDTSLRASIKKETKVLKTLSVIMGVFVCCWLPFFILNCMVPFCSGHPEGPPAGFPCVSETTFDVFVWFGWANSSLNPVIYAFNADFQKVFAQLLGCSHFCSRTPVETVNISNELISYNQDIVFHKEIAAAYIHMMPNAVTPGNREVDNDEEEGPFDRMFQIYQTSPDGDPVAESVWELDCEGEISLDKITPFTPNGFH
Sequence of Neurotensin receptor type 1 (Homo sapiens) (P30989 whole entry): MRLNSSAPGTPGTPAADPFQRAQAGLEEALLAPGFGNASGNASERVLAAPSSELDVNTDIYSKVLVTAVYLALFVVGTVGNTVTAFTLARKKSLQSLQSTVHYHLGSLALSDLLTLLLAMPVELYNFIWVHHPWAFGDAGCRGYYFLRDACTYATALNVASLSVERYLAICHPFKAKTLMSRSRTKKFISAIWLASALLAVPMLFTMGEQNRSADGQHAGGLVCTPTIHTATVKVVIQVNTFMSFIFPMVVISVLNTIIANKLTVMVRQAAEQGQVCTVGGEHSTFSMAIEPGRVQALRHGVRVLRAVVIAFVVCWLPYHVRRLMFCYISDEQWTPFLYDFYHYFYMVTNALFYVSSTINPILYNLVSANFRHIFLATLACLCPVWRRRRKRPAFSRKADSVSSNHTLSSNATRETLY
Sequence of B2 bradykinin receptor (Homo sapiens) (P30411 whole entry): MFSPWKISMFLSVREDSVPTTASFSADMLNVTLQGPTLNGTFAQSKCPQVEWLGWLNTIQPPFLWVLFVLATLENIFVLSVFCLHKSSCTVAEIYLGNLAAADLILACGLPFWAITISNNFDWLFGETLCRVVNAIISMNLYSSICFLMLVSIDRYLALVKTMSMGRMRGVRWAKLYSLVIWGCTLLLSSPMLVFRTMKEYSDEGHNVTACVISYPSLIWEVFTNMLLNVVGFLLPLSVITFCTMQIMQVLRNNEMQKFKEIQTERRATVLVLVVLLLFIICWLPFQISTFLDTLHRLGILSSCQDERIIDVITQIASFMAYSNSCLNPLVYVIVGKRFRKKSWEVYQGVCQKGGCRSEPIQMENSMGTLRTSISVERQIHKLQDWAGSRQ
Sequence of Sodium-dependent noradrenaline transporter (Homo sapiens) (P23975 whole entry): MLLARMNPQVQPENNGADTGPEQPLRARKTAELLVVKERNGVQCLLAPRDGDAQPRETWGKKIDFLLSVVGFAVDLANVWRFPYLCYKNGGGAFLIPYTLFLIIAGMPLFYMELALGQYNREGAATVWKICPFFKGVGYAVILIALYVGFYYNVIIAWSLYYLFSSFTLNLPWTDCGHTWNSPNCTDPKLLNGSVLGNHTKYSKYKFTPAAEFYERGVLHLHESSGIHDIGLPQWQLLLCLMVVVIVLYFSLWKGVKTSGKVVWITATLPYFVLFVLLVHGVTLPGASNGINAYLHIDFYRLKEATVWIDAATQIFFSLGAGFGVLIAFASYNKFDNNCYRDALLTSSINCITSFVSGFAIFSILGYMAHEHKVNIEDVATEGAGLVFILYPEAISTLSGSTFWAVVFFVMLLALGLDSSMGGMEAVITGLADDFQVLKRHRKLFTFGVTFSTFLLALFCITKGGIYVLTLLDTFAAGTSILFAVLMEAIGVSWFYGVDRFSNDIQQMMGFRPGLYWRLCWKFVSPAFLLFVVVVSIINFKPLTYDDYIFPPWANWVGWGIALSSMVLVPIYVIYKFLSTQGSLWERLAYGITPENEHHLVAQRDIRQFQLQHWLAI
Sequence of Muscarinic acetylcholine receptor M3 (Homo sapiens) (P20309 whole entry, looked up): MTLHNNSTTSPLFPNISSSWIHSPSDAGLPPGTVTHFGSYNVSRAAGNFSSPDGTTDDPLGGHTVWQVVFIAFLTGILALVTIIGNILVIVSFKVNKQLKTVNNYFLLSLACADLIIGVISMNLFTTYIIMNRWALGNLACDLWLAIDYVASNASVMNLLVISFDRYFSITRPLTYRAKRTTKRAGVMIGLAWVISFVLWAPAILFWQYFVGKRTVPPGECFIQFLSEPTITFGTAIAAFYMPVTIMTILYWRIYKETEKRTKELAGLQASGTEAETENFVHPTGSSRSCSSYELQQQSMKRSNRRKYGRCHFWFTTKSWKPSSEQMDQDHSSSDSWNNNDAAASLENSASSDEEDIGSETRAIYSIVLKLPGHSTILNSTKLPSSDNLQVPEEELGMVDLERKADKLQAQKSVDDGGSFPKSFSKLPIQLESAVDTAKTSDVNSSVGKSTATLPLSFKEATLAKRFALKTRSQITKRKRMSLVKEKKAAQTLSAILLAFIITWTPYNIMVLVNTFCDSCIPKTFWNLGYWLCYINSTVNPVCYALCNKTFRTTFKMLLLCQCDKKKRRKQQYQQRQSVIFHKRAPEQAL
Sequence of Alpha-2A adrenergic receptor (Rattus norvegicus) (P22909 whole entry): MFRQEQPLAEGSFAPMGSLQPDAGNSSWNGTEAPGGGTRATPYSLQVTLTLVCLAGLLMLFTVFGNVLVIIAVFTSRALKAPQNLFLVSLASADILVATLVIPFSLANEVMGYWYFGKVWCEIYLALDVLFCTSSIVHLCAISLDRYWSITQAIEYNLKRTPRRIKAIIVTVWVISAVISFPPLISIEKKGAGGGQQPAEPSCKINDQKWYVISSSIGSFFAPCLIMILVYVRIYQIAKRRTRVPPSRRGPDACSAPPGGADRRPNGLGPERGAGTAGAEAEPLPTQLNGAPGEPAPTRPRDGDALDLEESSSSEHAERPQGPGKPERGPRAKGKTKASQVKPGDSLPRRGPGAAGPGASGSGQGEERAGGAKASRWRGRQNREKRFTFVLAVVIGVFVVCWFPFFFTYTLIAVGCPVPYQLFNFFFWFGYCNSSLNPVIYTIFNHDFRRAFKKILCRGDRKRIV
Sequence of 5-hydroxytryptamine receptor 6 (Homo sapiens) (P50406 whole entry): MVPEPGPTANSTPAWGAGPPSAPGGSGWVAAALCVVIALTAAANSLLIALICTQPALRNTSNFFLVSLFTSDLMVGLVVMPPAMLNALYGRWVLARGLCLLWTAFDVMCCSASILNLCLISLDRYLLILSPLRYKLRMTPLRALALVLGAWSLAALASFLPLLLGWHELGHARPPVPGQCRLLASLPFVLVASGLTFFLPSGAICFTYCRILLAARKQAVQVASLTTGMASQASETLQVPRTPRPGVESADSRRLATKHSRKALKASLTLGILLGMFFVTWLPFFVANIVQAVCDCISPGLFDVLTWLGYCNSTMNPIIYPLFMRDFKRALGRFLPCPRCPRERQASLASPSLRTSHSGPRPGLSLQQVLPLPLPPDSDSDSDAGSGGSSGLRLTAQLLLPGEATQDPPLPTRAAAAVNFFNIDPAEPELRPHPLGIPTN

effect [1]: -3.05% | effect [2]: 10.5% | effect [4]: 1.3% | effect [5]: -10.1% | effect [6]: -9.65% | effect [7]: 14% | effect [8]: 1.6% | effect [9]: 77.8% | effect [10]: 16% | effect [11]: 69% | effect [12]: -16.6% | effect [13]: 10.8% | effect [14]: -9.8% | effect [15]: 32.5% | effect [16]: 25.4% | effect [17]: 45.5% | effect [18]: 4.15% | effect [19]: 14.2% | effect [20]: -1.65% | effect [21]: 35.4% | effect [22]: -5.7% | effect [23]: 5.75% | effect [24]: 1.85% | effect [25]: 6.3% | inhibition [26]: 7.69% | inhibition [27]: 3.45%
SMILES: CC(=O)Nc1ncc(CN2CCC[C@H](Cc3cc(C)nc(C)c3)C2)s1 [JNJ-65355394]
effect [3]: 10%

Ki ([28]; read-out: Ki): 2610 nM | Ki ([28]; read-out: pKi (converted)): 2570 nM | Ki [29]: 63.3 nM | inhibition [30]: 10.7% | inhibition [31]: -0.6%
SMILES: CC(=O)Nc1nc(CN2CCC[C@H](Cc3cc(C)nc(C)c3)C2)cs1 [JNJ-73924149]
